According to patent US5001143A, “Pharmaceutical composition for prophylactic and preventive of ketosis of livestocks” (Nihon Nohyaku Co., Ltd., priority 1983, dated 1991):

Columns and labels:
cows seized by ketosis = test: Pharmacological test: oral administration of granules to cows seized by ketosis once daily for 6 weeks, blood and urine components with time; assay type: in vivo; for Ketone bodies in urine: key: +++: Detected noticeably; ++: Detected clearly; +: Slightly detected; -: Not detected
Procedure: Pharmacological tests for the active ingredient of pharmaceutical composition of the present invention were conducted, by making the active ingredient into granules as in Example 1 and forcibly administering the granules orally to cows seized by ketosis in a predetermined dose once daily for 6 weeks. Examinations of various check items were made for bloods and urines taken from the cows before and 1, 3 and 6 weeks after the administration. In serum biochemical diagnosis, bloods were taken, coagulated and then subjected to centrifugation (3,000 rpm, 15 min.) to obtain respective serums and these serums were used. Blood sugar level was determined by a method using a glucose oxidase; free fatty acids were determined by an ACS-ACO-POD method; and ketone bodies in blood were determined by a diffusion colorimetry using salicyl aldehyde (THIN-ROBERTSON method). Ketone bodies in urine were determined by the use of Labstix (Sankyo Miles).
50 Parts of a compound No. 6, 15.0 parts of light silicic acid anhydride, 5.0 parts of precipitated calcium carbonate, 5.0 parts of corn starch, 2.0 parts of crystalline cellulose, 5.0 parts of a polyvinyl alcohol and 30 parts of water are homogeneously mixed and kneaded. Then, the mixture is ground, pelletized, dried and sifted to prepare granules. The granules are used for curing of ketosis of cows.

[1] = Toxicity, LD50 (male mice); conditions: mouse, in vivo
male mice = test: Toxicity, LD50 (male mice); conditions: male mice
[2] = 25 mg/kg oral once daily, 1 week after adm.
[3] = 25 mg/kg oral once daily, 3 weeks after adm.
[4] = 25 mg/kg oral once daily, 6 weeks after adm.
[5] = 25 mg/kg oral once daily, before adm.
[6] = 50 mg/kg oral once daily, 1 week after adm.
[7] = 50 mg/kg oral once daily, 3 weeks after adm.
[8] = 50 mg/kg oral once daily, 6 weeks after adm.
[9] = 50 mg/kg oral once daily, before adm.
[10] = 100 mg/kg oral once daily, 1 week after adm.
[11] = 100 mg/kg oral once daily, 3 weeks after adm.
[12] = 100 mg/kg oral once daily, 6 weeks after adm.
[13] = 100 mg/kg oral once daily, before adm.
[14] = 77.2 mg/kg oral once daily, 1 week after adm.
[15] = 77.2 mg/kg oral once daily, 3 weeks after adm.
[16] = 77.2 mg/kg oral once daily, 6 weeks after adm.
[17] = 77.2 mg/kg oral once daily, before adm.

Compound: CC(C)OC(=O)C(C(=O)OC(C)C)=C1SC(C(=O)O)S1 (stereo not shown) [compound 3]
- Acetoacetic acid in blood (cows seized by ketosis; [2]): 220 µmol/L
- Blood sugar level (cows seized by ketosis; [2]): 38.4 mg/dL
- Free fatty acids in blood (cows seized by ketosis; [2]): 416 μEq/l
- Ketone bodies in urine (cows seized by ketosis; [2]): ++
- Acetoacetic acid in blood (cows seized by ketosis; [3]): 816 µmol/L
- Blood sugar level (cows seized by ketosis; [3]): 34.0 mg/dL
- Free fatty acids in blood (cows seized by ketosis; [3]): 306 μEq/l
- Ketone bodies in urine (cows seized by ketosis; [3]): +
- Acetoacetic acid in blood (cows seized by ketosis; [4]): 400 µmol/L
- Blood sugar level (cows seized by ketosis; [4]): 43.3 mg/dL
- Free fatty acids in blood (cows seized by ketosis; [4]): 418 μEq/l
- Ketone bodies in urine (cows seized by ketosis; [4]): +
- Acetoacetic acid in blood (cows seized by ketosis; [5]): 628 µmol/L
- Blood sugar level (cows seized by ketosis; [5]): 33.0 mg/dL
- Free fatty acids in blood (cows seized by ketosis; [5]): 1,423 μEq/l
- Ketone bodies in urine (cows seized by ketosis; [5]): +++
- LD50 [1]: > 5000 mg/kg

Compound: CCOC(=O)C(C(=O)OC(C)C)=C1SCS1 [compound 2]
- LD50 [1]: > 5000 mg/kg

Compound: CC(C)OC(=O)C(C(=O)OC(C)C)=C1SCCS1 [compound 6, diisopropyl 1,3-dithiolan-2-ylindene malonate]
- Acetoacetic acid in blood (cows seized by ketosis; [2]): 630 µmol/L
- Blood sugar level (cows seized by ketosis; [2]): 23.5 mg/dL
- Free fatty acids in blood (cows seized by ketosis; [2]): 550 μEq/l
- Ketone bodies in urine (cows seized by ketosis; [2]): ++
- Acetoacetic acid in blood (cows seized by ketosis; [3]): 156 µmol/L
- Blood sugar level (cows seized by ketosis; [3]): 52.9 mg/dL
- Free fatty acids in blood (cows seized by ketosis; [3]): 201 μEq/l
- Acetoacetic acid in blood (cows seized by ketosis; [4]): 104 µmol/L
- Blood sugar level (cows seized by ketosis; [4]): 59.0 mg/dL
- Free fatty acids in blood (cows seized by ketosis; [4]): 351 μEq/l
- Acetoacetic acid in blood (cows seized by ketosis; [5]): 662 µmol/L
- Blood sugar level (cows seized by ketosis; [5]): 30.6 mg/dL
- Free fatty acids in blood (cows seized by ketosis; [5]): 1,148 μEq/l
- Ketone bodies in urine (cows seized by ketosis; [5]): +++
- Acetoacetic acid in blood (cows seized by ketosis; [6]): 1,344 μmol/1
- Blood sugar level (cows seized by ketosis; [6]): 34.3 mg/dL
- Free fatty acids in blood (cows seized by ketosis; [6]): 556.6 μEq/l
- Ketone bodies in urine (cows seized by ketosis; [6]): +
- Acetoacetic acid in blood (cows seized by ketosis; [7]): 608 μmol/1
- Blood sugar level (cows seized by ketosis; [7]): 43.3 mg/dL
- Free fatty acids in blood (cows seized by ketosis; [7]): 507.5 μEq/l
- Ketone bodies in urine (cows seized by ketosis; [7]): -
- Acetoacetic acid in blood (cows seized by ketosis; [8]): 102 μmol/1
- Blood sugar level (cows seized by ketosis; [8]): 64.8 mg/dL
- Free fatty acids in blood (cows seized by ketosis; [8]): 118.2 μEq/l
- Ketone bodies in urine (cows seized by ketosis; [8]): -
- Acetoacetic acid in blood (cows seized by ketosis; [9]): 1,550 μmol/1
- Blood sugar level (cows seized by ketosis; [9]): 33.6 mg/dL
- Free fatty acids in blood (cows seized by ketosis; [9]): 1,862.3 μEq/l
- Ketone bodies in urine (cows seized by ketosis; [9]): +++
- LD50 (male mice): 1,350 mg/kg

Compound: CC(C)OC(=O)C(C(=O)OC(C)C)=C1SCC(O)S1 (stereo not shown) [compound 8]
- Acetoacetic acid in blood (cows seized by ketosis; [10]): 260 µmol/L
- Blood sugar level (cows seized by ketosis; [10]): 48.4 mg/dL
- Free fatty acids in blood (cows seized by ketosis; [10]): 476 μEq/l
- Ketone bodies in urine (cows seized by ketosis; [10]): +
- Acetoacetic acid in blood (cows seized by ketosis; [11]): 586 µmol/L
- Blood sugar level (cows seized by ketosis; [11]): 41.0 mg/dL
- Free fatty acids in blood (cows seized by ketosis; [11]): 747 μEq/l
- Ketone bodies in urine (cows seized by ketosis; [11]): +
- Acetoacetic acid in blood (cows seized by ketosis; [12]): 76 µmol/L
- Blood sugar level (cows seized by ketosis; [12]): 53.5 mg/dL
- Free fatty acids in blood (cows seized by ketosis; [12]): 371 μEq/l
- Ketone bodies in urine (cows seized by ketosis; [12]): -
- Acetoacetic acid in blood (cows seized by ketosis; [13]): 1,232 μmol/l
- Blood sugar level (cows seized by ketosis; [13]): 32.0 mg/dL
- Free fatty acids in blood (cows seized by ketosis; [13]): 1,727 μEq/l
- Ketone bodies in urine (cows seized by ketosis; [13]): +++
- LD50 [1]: > 6590 mg/kg

Compound: CC(C)OC(=O)C(C(=O)OC(C)C)=C1SCC[S+]1[O-] (stereo not shown) [compound 7]
- LD50 [1]: > 6000 mg/kg

Compound: CC(C)OC(=O)C(C(=O)OC(C)C)=C1SC=CS1 [compound 4]
- Acetoacetic acid in blood (cows seized by ketosis; [14]): 50 µmol/L
- Blood sugar level (cows seized by ketosis; [14]): 40.3 mg/dL
- Free fatty acids in blood (cows seized by ketosis; [14]): 428 μEq/l
- Ketone bodies in urine (cows seized by ketosis; [14]): ++
- Acetoacetic acid in blood (cows seized by ketosis; [15]): 142 µmol/L
- Blood sugar level (cows seized by ketosis; [15]): 55.4 mg/dL
- Free fatty acids in blood (cows seized by ketosis; [15]): 303 μEq/l
- Ketone bodies in urine (cows seized by ketosis; [15]): +
- Acetoacetic acid in blood (cows seized by ketosis; [16]): 146 µmol/L
- Blood sugar level (cows seized by ketosis; [16]): 57.7 mg/dL
- Free fatty acids in blood (cows seized by ketosis; [16]): 238 μEq/l
- Ketone bodies in urine (cows seized by ketosis; [16]): -
- Acetoacetic acid in blood (cows seized by ketosis; [17]): 446 µmol/L
- Blood sugar level (cows seized by ketosis; [17]): 43.2 mg/dL
- Free fatty acids in blood (cows seized by ketosis; [17]): 1,377 μEq/l
- Ketone bodies in urine (cows seized by ketosis; [17]): +++
- LD50 (male mice): 3,120 mg/kg

Compound: CC(C)OC(=O)C(C(=O)OC(C)C)=C1SCS1 [compound 1]
- LD50 [1]: > 5000 mg/kg
